Where two headings read alike, the source gives them in different places. Where a SMILES comes first, the peptide text is derived from it. The star is where a group is joined. PNA(A) = NCCN(CC(=O)*)C(=O)Cn1cnc2c(N)ncnc21
Experiments:
[1] = tested on: H661 human non-small cell lung cancer cells; test: Inhibition of NSCLC cell proliferation (protocol of Example 14); format: cell-based; conditions: for % Cell Survival (±S.D.): H661
Protocol: (§1) The ability of compounds PKI 1, PKI 2 and PKI 3 to inhibit cancer cell proliferation was tested in vitro using the human neuroblastoma cell line IMR-32. Monolayer cell cultures were trypsinized and the test compound was added at the doses indicated in Table 24 and internalized by pinocytic endocytosis using Influx TM pinocytic cell-loading reagent, a kit from Molecular Probes (Eugene, Oreg.) following the manufacturer's recommendations. The indicated doses refer to the concentration in the loading medium, which was used on 1×10^6 cells in a 10 μl volume, i.e. contained 10 μg to 100 ug of test compound that provides […] per cell. It is worth noting, however, that only a small proportion of the compound is internalized using this technique, so the actual dose may be lower. The cells were treated on day 0 of the experiment. The cells loaded with test compound were cultured in 96 well plates (5,000 cells in 100 μl per well), and the proliferation was monitored over 3 consecutive days. The increase in cell population was quantified using a Hoechst reagent-based assay (modified from Rao and Otto, 1992, Analytical Biochem. 207:186-192) that measures the total DNA of the population. Fluorescence was measured using a Millipore CytoFluor 2350 plate reader (excitation at 360 nm and emission at 460 nm). The measurements were obtained as relative fluorescence intensity, a value that is directly correlated to the total number of cells. Data are expressed as a percentage of matching controls that were supplemented with culture medium alone.
The ability of the compound TIM 10 to inhibit cancer cell proliferation was tested in vitro using the human non-small cell lung cancer cell line H661 and following the general protocol described in Example 14. The effect of compound TIM 10 on CCD-16Lu cells (normal immortalized human lung fibroblasts) was also assessed by the same protocol. The results after 24, 48 and 72 hours of treatment are shown in Table 31 (H661 cell line) and FIG. 24 (A: CCD-16LU cell line, and B: H661 cell line). The change in dose effect at 48 and 72 hrs in normal cells (see FIG. 24A) for lower doses of compound TIM 10 was interpreted as being due to the probable intracellular degradation of compound TIM 10 which would reduce the level of compound TIM 10 to doses that no longer affect growth. In H661 cells, however, at doses of 1 mM compound TIM 10 was not degraded and its sub localization was not altered as assessed by western blot and immunocytochemistry imaging.

[2] = Flocculation of blood serum and plasma component; conditions: pigs, mice and human
Excerpt: In order to prevent this flocculation and increase the efficacy of the TIM compounds, advantage was taken of the properties of TPGS (alpha tocopherol polyethylene glycol succinate). The adjuvant may also protect the TIM compounds from enzymatic degradation.

[3] = target: PKC beta 1 (Homo sapiens, UniProt P05771); test: Kinase-Glo Luminescent Kinase Assay; format: biochemical; parameters: purchased; conditions: read-out: % Inhibition PKC-βI
Protocol: (§2) Compounds TIM 10, 11, 13, 14, 15, and 18-22 (see Table 28) were tested for their ability to inhibit the activity of PKC-alpha, beta 1, delta and epsilon isoforms the Kinase-Glo™ Luminescent Kinase Assay (Promega, Cat # V6712/3/4) following the manufacturer's instructions.

[4] = tested on: IMR-32 human neuroblastoma cells; conditions: IMR-32
Protocol: as §1, with “It is worth noting, however, that only a small proportion of the compound is internalized using this technique, so the actual dose may be lower.” left out
The ability of the compound TIM 9 to inhibit cancer cell proliferation was tested in vitro using the human neuroblastoma cell line IMR-32 and following the general protocol described in Example 14.
The ability of the compound TIM 11 to inhibit IMR-32 cancer cell proliferation was tested in vitro following the general protocol described in Example 14.
The ability of the compound TIM 10 to inhibit cancer cell proliferation was tested in vitro using the human neuroblastoma IMR-32 cell line and following the general protocol described in Example 14.

[5] = Repeat-dose toxicity study in mice; format: in vivo, mouse; conditions: 72-hour dosing schedule up to 75 days, subcutaneous
Excerpt: A dosage of 25 micrograms per mouse was provided to a cohort of mice by subcutaneous injection. No physiological, behavioral or external signs of toxicity were observed.

[6] = target: PKC alpha (Homo sapiens, UniProt P17252); test: Kinase-Glo Luminescent Kinase Assay; format: biochemical; conditions: read-out: % Inhibition PKC-α
Protocol: as §2

[7] = target: PKC delta (Homo sapiens, UniProt Q05655); test: Kinase-Glo Luminescent Kinase Assay; format: biochemical; conditions: read-out: % Inhibition PKC-δ
Protocol: as §2

Chain of PKC beta 1 (P05771 whole entry, canonical isoform): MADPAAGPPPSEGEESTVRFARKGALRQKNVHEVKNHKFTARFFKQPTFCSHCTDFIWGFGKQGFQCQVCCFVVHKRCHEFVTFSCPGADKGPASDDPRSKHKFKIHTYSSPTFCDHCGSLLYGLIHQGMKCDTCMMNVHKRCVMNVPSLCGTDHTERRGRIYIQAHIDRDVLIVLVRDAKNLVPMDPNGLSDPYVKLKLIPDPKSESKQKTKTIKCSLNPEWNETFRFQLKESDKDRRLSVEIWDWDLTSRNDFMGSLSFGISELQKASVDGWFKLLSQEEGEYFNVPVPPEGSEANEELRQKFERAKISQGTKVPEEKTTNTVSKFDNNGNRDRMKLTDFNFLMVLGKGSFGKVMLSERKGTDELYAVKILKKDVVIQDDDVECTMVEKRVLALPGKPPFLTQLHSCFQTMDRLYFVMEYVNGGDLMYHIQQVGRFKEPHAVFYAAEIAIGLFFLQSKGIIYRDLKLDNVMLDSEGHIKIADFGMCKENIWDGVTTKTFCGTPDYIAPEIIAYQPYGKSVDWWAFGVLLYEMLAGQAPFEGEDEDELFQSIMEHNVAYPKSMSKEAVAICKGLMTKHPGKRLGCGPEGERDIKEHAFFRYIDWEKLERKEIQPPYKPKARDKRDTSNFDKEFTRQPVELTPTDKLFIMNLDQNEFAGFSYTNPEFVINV
Chain of PKC delta (Q05655 whole entry): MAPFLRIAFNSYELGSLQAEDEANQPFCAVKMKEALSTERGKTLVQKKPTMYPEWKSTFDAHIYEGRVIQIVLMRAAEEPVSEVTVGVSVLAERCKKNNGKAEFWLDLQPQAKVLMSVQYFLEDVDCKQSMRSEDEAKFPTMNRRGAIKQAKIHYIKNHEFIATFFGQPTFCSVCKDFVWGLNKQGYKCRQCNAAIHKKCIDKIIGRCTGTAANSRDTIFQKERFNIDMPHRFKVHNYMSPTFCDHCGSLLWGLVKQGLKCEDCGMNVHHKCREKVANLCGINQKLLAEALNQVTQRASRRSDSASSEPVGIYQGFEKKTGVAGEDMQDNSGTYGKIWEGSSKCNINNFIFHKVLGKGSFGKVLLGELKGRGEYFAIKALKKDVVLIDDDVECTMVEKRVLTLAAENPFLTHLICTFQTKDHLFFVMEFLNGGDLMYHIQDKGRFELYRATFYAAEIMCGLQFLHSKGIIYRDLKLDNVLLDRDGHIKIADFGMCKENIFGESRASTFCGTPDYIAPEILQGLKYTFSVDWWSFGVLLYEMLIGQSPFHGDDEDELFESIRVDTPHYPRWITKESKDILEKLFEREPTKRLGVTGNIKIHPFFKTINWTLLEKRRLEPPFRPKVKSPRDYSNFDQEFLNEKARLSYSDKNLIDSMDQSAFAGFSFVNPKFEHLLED

CC[C@H](C)[C@H](NC(=O)[C@H](CO)NC(=O)[C@@H](NC(=O)CNC(=O)[C@@H](NC(=O)[C@H](CC(C)C)NC(=O)[C@H](CC(N)=O)NC(=O)[C@H](CCC(N)=O)NC(=O)[C@H](C)NC(=O)[C@H](CC(=O)O)NC(=O)[C@H](CCCCN)NC(=O)CNC(=O)CNC(=O)CNC(=O)CNC(=O)CNC(=O)CNC(=O)CNC(=O)[C@H](CC(C)C)NC(=O)[C@H](CCCNC(=N)N)NC(=O)[C@H](Cc1ccccc1)NC(=O)[C@H](CCCCNC(=O)CN(CCN)C(=O)Cn1cnc2c(N)ncnc21)NC(=O)[C@H](CCCNC(=N)N)NC(=O)[C@H](CCCNC(=N)N)NC(=O)[C@H](Cc1ccccc1)NC(C)=O)[C@@H](C)CC)[C@@H](C)CC)C(N)=O [TIM 10] (Ac-FRRK(PNA(A))FRLGGGGGGGKDAQNLIGISI-NH2)
% Cell Survival (±S.D.) ([1]; 100 μM, 24 Hours): 97 (6) % | % Cell Survival (±S.D.) ([1]; 100 μM, 48 Hours): 85 (3) % | % Cell Survival (±S.D.) ([1]; 100 μM, 72 Hours): 51 (5) % | % Cell Survival (±S.D.) ([1]; 500 μM, 24 Hours): 91 (5) % | % Cell Survival (±S.D.) ([1]; 500 μM, 48 Hours): 82 (2) % | % Cell Survival (±S.D.) ([1]; 500 μM, 72 Hours): 49 (7) % | % Cell Survival (±S.D.) ([1]; 1 mM, 24 Hours): 85 (9) % | % Cell Survival (±S.D.) ([1]; 1 mM, 48 Hours): 82 (2) % | % Cell Survival (±S.D.) ([1]; 1 mM, 72 Hours): 45 (6) % | % Cell Survival (±S.D.) ([1]; 5 mM, 24 Hours): 83 (7) % | % Cell Survival (±S.D.) ([1]; 5 mM, 48 Hours): 79 (2) % | % Cell Survival (±S.D.) ([1]; 5 mM, 72 Hours): 43 (5) % | intracellular degradation ([1]; H661 cells, 1 mM, western blot and immunocytochemistry): not degraded | flocculation of a component of blood serum and plasma [2]: cause flocculation | inhibition at 15 µM ([3]; 15.0 μM): 74% | inhibition at 30 µM ([3]; 30.0 μM): 100% | % Cell Survival ([4]; 100 μM, 24 Hours): 93% | % Cell Survival ([4]; 100 μM, 48 Hours): 80% | % Cell Survival ([4]; 100 μM, 72 Hours): 77% | % Cell Survival ([4]; 500 μM, 24 Hours): 91% | % Cell Survival ([4]; 500 μM, 48 Hours): 76% | % Cell Survival ([4]; 500 μM, 72 Hours): 73% | % Cell Survival ([4]; 1 mM, 24 Hours): 90% | % Cell Survival ([4]; 1 mM, 48 Hours): 77% | % Cell Survival ([4]; 1 mM, 72 Hours): 70% | % Cell Survival ([4]; 5 mM, 24 Hours): 81% | % Cell Survival ([4]; 5 mM, 48 Hours): 76% | % Cell Survival ([4]; 5 mM, 72 Hours): 66% | toxicity on repeated dosing [5]: no evidence of toxicity | toxicity on repeated dosing ([5]; listed as PhGalpha1): No evidence of toxicity | inhibition at 15 µM ([6]; 15.0 μM): 31.4% | inhibition at 30 µM ([6]; 30.0 μM): 28.6% | inhibition at 15 µM ([7]; 15.0 μM): 15.8% | inhibition at 30 µM ([7]; 30.0 μM): 22.1%

From patent publication US20110039770A1, “INHIBITORS OF PROTEIN KINASE C ISOFORMS AND USES THEREOF” (PHARMAGAP INC., priority 2005, published 2011)
